These results are taken from patent US6500853B1, “Inhibitors of phospholipase enzymes” (Genetics Institute, LLC, priority 1998, dated 2002).

The target in one experiment is T1, cPLA2 (Homo sapiens, UniProt P47712).
T1 sequence (P47712 1-749): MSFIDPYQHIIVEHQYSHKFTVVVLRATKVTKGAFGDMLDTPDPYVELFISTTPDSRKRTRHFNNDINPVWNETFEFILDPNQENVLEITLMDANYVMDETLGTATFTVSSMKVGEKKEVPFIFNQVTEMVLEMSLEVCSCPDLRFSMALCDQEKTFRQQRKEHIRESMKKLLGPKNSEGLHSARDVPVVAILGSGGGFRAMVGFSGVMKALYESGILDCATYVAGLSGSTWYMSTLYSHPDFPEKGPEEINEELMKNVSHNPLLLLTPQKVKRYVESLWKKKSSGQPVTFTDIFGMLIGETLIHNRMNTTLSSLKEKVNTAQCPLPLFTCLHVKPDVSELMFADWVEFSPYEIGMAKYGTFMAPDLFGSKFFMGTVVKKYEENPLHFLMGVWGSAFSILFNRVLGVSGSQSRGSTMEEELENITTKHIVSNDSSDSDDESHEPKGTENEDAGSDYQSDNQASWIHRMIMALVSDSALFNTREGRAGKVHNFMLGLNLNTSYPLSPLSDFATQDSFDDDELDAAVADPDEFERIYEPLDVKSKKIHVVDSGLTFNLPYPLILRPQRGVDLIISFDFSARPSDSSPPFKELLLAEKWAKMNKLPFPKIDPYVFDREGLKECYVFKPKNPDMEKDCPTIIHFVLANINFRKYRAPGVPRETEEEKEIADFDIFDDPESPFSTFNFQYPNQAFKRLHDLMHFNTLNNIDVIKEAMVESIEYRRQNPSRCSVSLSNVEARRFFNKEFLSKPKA
As to the kind of experiment: Coumarin Assay (cPLA2 inhibition). The following applies: for inhibition at 10.5 µM: CONCENTRATION 10.5 micromolar. The format is biochemical. In outline:
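Percent inhibition at the stated concentration, from the rate of 460 nm emission rise (360 nm excitation) per minute. Reaction started by adding 4 μg enzyme to compound and 60 μM 7-hydroxycoumarinyl 6-heptenoate in Hepes buffer pH 7.5 with 1 mM EDTA.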

Experiment [1] has as its system Rat Carrageenan-Induced Footpad Edema. Description: Rat Carrageenan-Induced Footpad Edema Test. The following applies: footpad volume 3 hours after carrageenan; for inhibition in vivo at 2 mg/kg / inhibition in vivo at 10 mg/kg / inhibition in vivo at 5 mg/kg: Rattus norvegicus, 3 h, read-out: PERCENT INHIBITION; for inhibition in vivo at 2 mg/kg / inhibition in vivo at 10 mg/kg: po; for inhibition in vivo at 2 mg/kg / inhibition in vivo at 10 mg/kg / PERCENT INHIBITION: PO; for inhibition in vivo at 5 mg/kg: iv, IV. The format is in vivo, male Sprague Dawley rats. Background: The carrageenan paw model is a standard test of acute inflammation.

[2] abbreviates: CONCENTRATION 100 micromolar, read-out: PERCENT INHIBITION @.

On to `COc1cc(C(=O)NS(=O)(=O)C(F)(F)F)ccc1Cc1cn(C(c2ccccc2)c2ccccc2)c2ccc([N+](=O)[O-])cc12` [Example 37, N-{4-[(1-benzhydryl-5-nitro-1H-indol-3-yl)methyl]-3-methoxybenzoyl}(trifluoro)methanesulfonamide], for which the inhibition at 0.4 µM at cPLA2 (CONCENTRATION 0.4 micromolar, read-out: PERCENT INHIBITION @) stood at 50%. The inhibition at 0.5 µM at cPLA2 (CONCENTRATION 0.5 micromolar, read-out: PERCENT INHIBITION @) turned out to be 50%. For the same compound, on cPLA2 (CONCENTRATION 0.55 micromolar, read-out: PERCENT INHIBITION @), the inhibition at 0.55 µM was determined as 50%. The inhibition at 0.65 µM at cPLA2 (CONCENTRATION 0.65 micromolar, read-out: PERCENT INHIBITION @) is 50%. Also, the inhibition in vivo at 2 mg/kg in experiment [1] (2 mg/Kg) is -7.94%. Further, the inhibition in vivo at 10 mg/kg in experiment [1] (10 mg/Kg) amounted to 3.36%.
As for `COc1cc(C(=O)O)ccc1Cc1cn(C(c2ccccc2)c2ccccc2)c2ccc(NS(=O)(=O)c3ccc(Cl)c([N+](=O)[O-])c3)cc12` [Example 91, 4-[(1-benzhydryl-5-{[(4-chloro-3-nitrophenyl)sulfonyl]amino}-1H-indol-3-yl)methyl]-3-methoxybenzoic acid], on cPLA2 (CONCENTRATION 3.8 micromolar, read-out: PERCENT INHIBITION @), the inhibition at 3.8 µM is 50%. In addition, the inhibition at 4.25 µM on cPLA2 (CONCENTRATION 4.25 micromolar, read-out: PERCENT INHIBITION @) stood at 50%. The inhibition in vivo at 2 mg/kg in experiment [1] (2 mg/Kg) turned out to be 13.5%. Besides, the inhibition in vivo at 10 mg/kg in experiment [1] (10 mg/Kg) came to 14.7%.
Take `O=C(Nc1cccc(C(=O)O)c1)C(=O)c1cn(Cc2ccc(Cc3ccccc3)cc2)c2ccccc12` [Example 59, 3-({2-[1-(4-benzylbenzyl)-1H-indol-3-yl]-2-oxoacetyl}amino)benzoic acid]: on cPLA2 (CONCENTRATION 6 micromolar, read-out: PERCENT INHIBITION @), the inhibition at 6 µM stood at 50%. In addition, the inhibition at 12.5 µM on cPLA2 (CONCENTRATION 12.5 micromolar, read-out: PERCENT INHIBITION @) is 90%. In experiment [1], the inhibition in vivo at 5 mg/kg was found to be 2.9%.
As for `COc1cc(C(=O)NS(=O)(=O)c2ccccc2C)ccc1Cc1cn(C(C)C)c2ccc(NC(=O)OC3CCCC3)cc12` [Example 24, Cyclopentyl N-{1-isopropyl-3-[2-methoxy-4-({[(2-methylphenyl)sulfonyl]amino}carbonyl)benzyl]-1H-indol-5-yl}carbamate], on cPLA2 (CONCENTRATION 100 micromolar), the “PERCENT INHIBITION @” value stood at 50%. The inhibition at 100 µM on cPLA2 (setting [2]) came out at 42%. Further, the inhibition in vivo at 5 mg/kg in experiment [1] was 8.33%.
With `O=C(NS(=O)(=O)C(F)(F)F)c1ccc(Cc2cn(C(c3ccccc3)c3ccccc3)c3ccc([N+](=O)[O-])cc23)cc1` [Example 55, N-{4-[(1-benzhydryl-5-nitro-1H-indol-3-yl)methyl]benzoyl}(trifluoro)methanesulfonamide], the inhibition at 1.35 µM on cPLA2 (CONCENTRATION 1.35 micromolar, read-out: PERCENT INHIBITION @) amounted to 50%. For the same compound, the inhibition in vivo at 2 mg/kg in experiment [1] (2 mg/Kg) was 7.02%. For the same compound, the inhibition in vivo at 10 mg/kg in experiment [1] (10 mg/Kg) was determined as 21.5%.
Turning to `CS(=O)(=O)NC(=O)CCc1cn(C(c2ccccc2)c2ccccc2)c2ccc(NC(=O)C3CCCC3)cc12` [Example 85, N-(1-benzhydryl-3-{3-[(methylsulfonyl)amino]-3-oxopropyl}-1H-indol-5-yl)cyclopentanecarboxamide], the inhibition at 100 µM on cPLA2 (setting [2]) was 31%. Besides, the inhibition at 200 µM at cPLA2 (CONCENTRATION 200 micromolar, read-out: PERCENT INHIBITION @) was 50%. Further, in experiment [1], the inhibition in vivo at 5 mg/kg came out at 7.13%.
As to `COc1cc(C(=O)O)ccc1Cc1cn(C(c2ccccc2)c2ccccc2)c2ccc(NS(=O)(=O)c3sc(NC(C)=O)nc3C)cc12` [Example 90, 4-{[5-({[2-(acetylamino)-4-methyl-1,3-thiazol-5-yl]sulfonyl}amino)-1-benzhydryl-1H-indol-3-yl]methyl}-3-methoxybenzoic acid], at cPLA2 (CONCENTRATION 10.2 micromolar, read-out: PERCENT INHIBITION @), the inhibition at 10.2 µM was 50%. The inhibition at 10.5 µM on cPLA2 (read-out: PERCENT INHIBITION @) stood at 50%. Besides, the inhibition in vivo at 2 mg/kg in experiment [1] (2 mg/Kg) is -0.18%. The inhibition in vivo at 10 mg/kg in experiment [1] (10 mg/Kg) amounted to 2.7%.
Take `O=C(O)c1cscc1NC(=O)c1cn(C(c2ccccc2)c2ccccc2)c2ccc(NC(=O)C3CCCC3)cc12` [Example 99, 4-[({1-benzhydryl-5-[(cyclopentylcarbonyl)amino]-1H-indol-3-yl}carbonyl)amino]-3-thiophenecarboxylic acid]: at cPLA2 (CONCENTRATION 30 micromolar, read-out: PERCENT INHIBITION @), the inhibition at 30 µM was found to be 13%. For the same compound, at cPLA2 (CONCENTRATION 100 micromolar), the “PERCENT INHIBITION @” value is listed as 50%. In addition, the inhibition at 100 µM on cPLA2 (setting [2]) is 38%. Besides, the inhibition in vivo at 2 mg/kg in experiment [1] (2 mg/Kg) came out at 24.5%. In addition, the inhibition in vivo at 10 mg/kg in experiment [1] (10 mg/Kg) was 22.8%.
`COc1cc(C(=O)O)ccc1Cc1cn(C(c2ccccc2)c2ccccc2)c2ccc(C#N)cc12` [Example 17, 4-[(1-benzhydryl-5-cyano-1H-indol-3-yl)methyl]-3-methoxybenzoic acid]: at cPLA2 (CONCENTRATION 0.7 micromolar, read-out: PERCENT INHIBITION @), the inhibition at 0.7 µM is 50%. For the same compound, on cPLA2 (CONCENTRATION 0.8 micromolar, read-out: PERCENT INHIBITION @), the inhibition at 0.8 µM was determined as 50%. For the same compound, the inhibition at 0.85 µM at cPLA2 (CONCENTRATION 0.85 micromolar, read-out: PERCENT INHIBITION @) came out at 50%. For the same compound, the inhibition at 0.98 µM at cPLA2 (CONCENTRATION 0.98 micromolar, read-out: PERCENT INHIBITION @) was 50%. Moreover, the inhibition in vivo at 2 mg/kg in experiment [1] (2 mg/Kg) amounted to 19.3%. The inhibition in vivo at 10 mg/kg in experiment [1] (10 mg/Kg) amounted to 34.5%.
Consider `O=C(O)c1ccc(Cc2cn(C(c3ccccc3)c3ccccc3)c3ccc([N+](=O)[O-])cc23)cc1` [Example 50, 4-[(-benzhydryl-5-nitro-1H-indol-3-yl)methyl]benzoic acid], for which the “PERCENT INHIBITION @” value was found to be 50% on cPLA2 (CONCENTRATION 0.8 micromolar), 50% at cPLA2 (CONCENTRATION 0.85 micromolar), 50% on cPLA2 (CONCENTRATION 1.05 micromolar) and 81% on cPLA2 (CONCENTRATION 2.5 micromolar). For the same compound, the “PERCENT INHIBITION” value in experiment [1] (2 mg/Kg) came to 5.44%; in experiment [1] (10 mg/Kg), 12.34%.
With `O=C(NS(=O)(=O)C(F)(F)F)c1ccc(Cc2cn(C(c3ccccc3)c3ccccc3)c3ccc(Br)cc23)cc1` [Example 58, N-{4-[(1-benzhydryl-5-bromo-1H-indol-3-yl)methyl]benzoyl}(trifluoro)methanesulfonamide], the inhibition at 1.65 µM on cPLA2 (CONCENTRATION 1.65 micromolar, read-out: PERCENT INHIBITION @) was 50%. Besides, the inhibition in vivo at 2 mg/kg in experiment [1] (2 mg/Kg) was determined as 13.8%. In addition, the inhibition in vivo at 10 mg/kg in experiment [1] (10 mg/Kg) amounted to 9.96%.
As to `COc1cc(C(=O)O)ccc1Cc1cn(C(c2ccccc2)c2ccccc2)c2ccc(NS(=O)(=O)c3c(C)noc3C)cc12` [Example 96, 4-[(1-benzhydryl-5-{[(3,5-dimethyl-4-isoxazolyl)sulfonyl]amino}-1H-indol-3-yl)methyl]-3-methoxybenzoic acid], the inhibition at 8 µM at cPLA2 (CONCENTRATION 8 micromolar, read-out: PERCENT INHIBITION @) was found to be 50%. Besides, the inhibition at 10.5 µM at cPLA2 (read-out: PERCENT INHIBITION @) was found to be 50%. In addition, the inhibition in vivo at 2 mg/kg in experiment [1] (2 mg/Kg) is 29.4%. Also, the inhibition in vivo at 10 mg/kg in experiment [1] (10 mg/Kg) came to 22%.
Regarding `COc1cc(C(=O)NS(=O)(=O)c2ccccc2Cl)ccc1Cc1cn(C(c2ccccc2)c2ccccc2)c2ccc(NC(=O)OC3CCCC3)cc12` [Example 28, cyclopentyl N-{1-benzhydryl-3-[4-({[(2-chlorophenyl)sulfonyl]amino}carbonyl)-2-methoxybenzyl]-1H-indol-5-yl}carbamate], the inhibition at 4.2 µM on cPLA2 (CONCENTRATION 4.2 micromolar, read-out: PERCENT INHIBITION @) amounted to 50%. Further, the inhibition at 4.4 µM at cPLA2 (CONCENTRATION 4.4 micromolar, read-out: PERCENT INHIBITION @) came to 50%. Moreover, in experiment [1], the inhibition in vivo at 5 mg/kg was found to be 0.29%.
Turning to `O=C(O)c1cn(C(c2ccccc2)c2ccccc2)c2ccc(NC(=O)C3CCCC3)cc12` [Example 114, 1-benzhydryl-5-[(cyclopentylcarbonyl)amino]-1H-indole-3-carboxylic acid], on cPLA2 (setting [2]), the inhibition at 100 µM is 45%. Besides, at cPLA2 (CONCENTRATION 152 micromolar, read-out: PERCENT INHIBITION @), the inhibition at 152 µM was 50%. In addition, the inhibition at 170 µM at cPLA2 (CONCENTRATION 170 micromolar, read-out: PERCENT INHIBITION @) amounted to 50%. For the same compound, the inhibition in vivo at 2 mg/kg in experiment [1] (2 mg/Kg) is 12.2%. Moreover, in experiment [1] (10 mg/Kg), the inhibition in vivo at 10 mg/kg came to 22.2%.

By inhibition is commonly meant how much of the control response was suppressed.
